Data taken from US6495118B1, “Lipophilic metal complexes for necrosis and infarction imaging” (Schering Aktiengesellschaft, priority 1997, dated 2002).

Legend:
plasma protein = conditions: cited from earlier work
[1] = tested on: rats with induced renal infarctions (necrotic area of the kidney); assay: MRI experiments on animals with induced renal infarctions; assay type: in vivo; conditions: rat
Protocol: Plasma protein bond: 10% (Europ. Workshop on Magn. Reson. in Medicine, Santiago de Compostela, Spain, Sep. 28-30, 1994).
The induction of the renal infarctions was carried out on anesthetized (Rompun®/Ketavet®, i.p.) rats (Han. Wistar, Schering SPF, about 200 g of body weight) by occlusion of a (caudal) branch of the left renal artery. The contrast medium was administered (dose: 300 or 500 μmol of Gd/kg of body weight) about 24 hours after the induction of infarction. The animals were studied before and up to 24 hours after contrast medium administration by MR-tomography (SISCO SIS 85, 2 tesla; SE sequence, TR: 400 ms, TE: 15 ms, nt=4, ni=128, FOV: 12-7 cm, SD≈3 mm, 1 layer each axial or coronary).
After the MRI experiments were completed, the anesthetized animals were sacrificed by exsanguination (via the V. cava), and both kidneys were prepared. To verify the infarction (size and position), the left (infarcted) kidney was removed and sliced into disks, and then NBT (“vital”) coloring was carried out.

CCOc1ccc(CC(CN(CCN(CC(=O)[O-])CC(=O)[O-])CC(=O)[O-])N(CC(=O)[O-])CC(=O)[O-])cc1.[Gd+3].[Na+].[Na+] (centres unmarked) [Eovist]
Plasma protein bond (plasma protein): 10%
MRI appearance of nonperfused portion of the kidneys ([1]; 300 or 500 μmol of Gd/kg i.v., immediately after substance administration): hypointense area
MRI signal (enhancement) in the necrotic area of the kidneys ([1]; 300 or 500 μmol of Gd/kg i.v., late phase (about 4-6 hours p.i.), all animals studied): considerable signal increase (enhancement)
MRI signal intensity in the non-perfused area ([1]; 300 or 500 μmol of Gd/kg i.v., starting at about 15-30 minutes p.i.): increased somewhat
Correlation of MRI delineation of the necrotic area with histological vital (NBT) coloring ([1]; infarcted left kidney): correlated very well
